Data published in US12616672B2, “Methods for assessing risk of cardiovascular disease and methods and compounds for use in treating or preventing cardiovascular disease” (Queen Mary University of London, priority 2017, dated 2026).

Tested on: healthy volunteer peripheral blood neutrophils, monocytes and platelets
Experiment: Healthy volunteer whole blood incubated with RvDn-3 DPA then PAF, flow cytometry of activation markers
Assay type: cell-based, human
Conditions: 0.1, 1, 10 nM, 15 min then PAF 30 min
Method: Blood was collected from healthy volunteers and incubated with RvD2n-3 DPA, RvD5n-3 DPA (0.1 nM, 1 nM or 10 nM) or vehicle (PBS) for 15 min (37° C.) then with PAF (100 ng/ml; 30 min; 37° C.). Cell activation and leukocyte-platelet aggregates were assessed using flow cytometry. (A,B) Representative histograms depicting neutrophil (A) CD11b and (B) CD62P expression. (C,D) Cumulative neutrophil ([…]) CD11b and (D) CD62P expression. (E,F) Monocyte (E) CD11b and (F) CD62P expression. Results are mean of n=5 per time point and expressed as percentage change from PAF incubated cells. *p<0.05 compared to PAF using one-sample t test, followed by Sidak correction of p values.
Blood was collected from healthy volunteers and incubated with RvD2n-3 DPA, RvD5n-3 DPA (0.1 nM, 1 nM or 10 nM) or vehicle (PBS) for 15 min (37° C.) then with PAF (100 ng/ml; 30 min; 37° C.). Cell activation and leukocyte-platelet aggregates were assessed using flow cytometry. (A,B) Images depicting platelet monocyte (A) and (B) platelet-neutrophil aggregates. Results are representative of n=3 distinct experiments. (C,D) Cumulative neutrophil (C) CD11b and (D) CD62P expression. (E,F) Monocyte (E) CD11b and (F) CD62P expression. Results are mean of n=5 per condition and expressed as percentage change from PAF incubated cells. *p<0.05 compared to PAF using Wilcoxon Signed Rank Test. (G) Platelet rich plasma was incubated with vehicle (PBS) or RvD5n-3 DPA 0.1-10 nM (15 min; 37° C.) and PAF (100 nM; 30 min; 37° C.). Adhesion molecule expression evaluated using flow cytometry. Results are mean±s.e.m. n=5 healthy volunteers. * p, 0.05 compared to Vehicle group using Friedman's test followed by Dunn's multiple comparisons test.
After stimulation, samples were washed twice with PBS for 12 min at 800×g. Samples were stained for flow cytometry as described below.
Whole blood was incubated with lineage-specific markers for 45 min (4° C., in DPBS containing 0.02% BSA). The following anti-human antibodies were used: VioBlue-anti-CD41, PE-Cy5-anti-CD62P, Brilliant Violet 711-anti-CD11b, APC-Cy7-anti-CD16, Alexa Fluor 647-anti-CD14. After staining, red blood cells were lysed using Whole Blood Lysing Reagent Kit, according to the manufacturer's instructions. Data was collected using a flow cytometer and analysis was conducted using appropriate software.

CC/C=C\C[C@H](O)/C=C/C=C\C/C=C\C=C\[C@@H](O)CCCCCC(=O)O [RvD5n-3 DPA, 7,17-trihydroxy-8E,10,13,15E,19Z-docosapentaenoic acid]
dose-dependent decreases: leukocyte-platelet aggregates | monocyte expression of CD11b (vs PAF alone) | neutrophil CD11b expression (vs PAF alone)
